Measured values published in ChEMBL document CHEMBL1201862, “PubChem BioAssay data set” (2004).
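Exposure lasted 48 hours, with cells grown in 96-well plates and compounds tested at five concentrations. At the GI50, growth is halved.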 Active and inactive are the calls of the source. No stated cut-off is given here; in the data, active = GI50 up to about 1.1 µM and inactive = higher.

Experiments:
Assay in all cases: inhibition of tumour cell growth, NCI panel, 48 h
SN12C = tested on: SN12C
RXF 393 = tested on: RXF 393
HCT-116 = tested on: HCT-116
LOX IMVI = tested on: LOX IMVI
SW-620 = tested on: SW-620
HCT-15 = tested on: HCT-15
Malme-3M = tested on: Malme-3M
UACC-62 = tested on: UACC-62
DLD-1 = tested on: DLD-1
ACHN = tested on: ACHN
SK-MEL-28 = tested on: SK-MEL-28
SR = tested on: SR
A498 = tested on: A498
HL-60 = tested on: HL-60
COLO 205 = tested on: COLO 205
SK-OV-3 = tested on: SK-OV-3

SMILES | GI50 (SN12C) | GI50 (RXF 393) | GI50 (HCT-116) | GI50 (LOX IMVI) | GI50 (SW-620) | GI50 (HCT-15) [µM] | GI50 (Malme-3M) | GI50 (UACC-62) | GI50 (DLD-1) | GI50 (ACHN) | GI50 (SK-MEL-28) | GI50 (SR) | GI50 (A498) | GI50 (HL-60) | GI50 (COLO 205) | GI50 (SK-OV-3)
Cc1ccc(NC(=O)CC2C(=O)Nc3ccccc3S2(=O)=O)c(C)c1 (stereo unspecified) | 18.6 µM (inactive) | 17 µM (inactive) | 12.2 µM (inactive) | 15 µM (inactive) | 5.21 µM (inactive) | 8.32 | 12.9 µM (inactive) | 7.26 µM (inactive) | 14.6 µM (inactive) | 18 µM (inactive) | 17 µM (inactive) | 1.8 µM (inactive) | 14.8 µM (inactive) | 2.77 µM (inactive) |  | 
NNC(=O)CCC(=O)Nc1cc(Cl)c(Cl)cc1Cl | > 100 µM (inactive) | > 100 µM (inactive) | > 100 µM (inactive) | > 100 µM (inactive) | > 100 µM (inactive) | > 100 | > 100 µM (inactive) | > 100 µM (inactive) | > 100 µM (inactive) | > 100 µM (inactive) | > 100 µM (inactive) | 0.607 µM (active) | 38.3 µM (inactive) | > 100 µM (inactive) | > 100 µM (inactive) | > 100 µM (inactive)
O=[N+]([O-])c1ccc(-c2ccc(C3=Nn4c(nnc4-c4ccc(Cl)cc4)SC3)o2)cc1 | 97.9 µM (inactive) |  | 45 µM (inactive) | > 100 µM (inactive) | > 100 µM (inactive) | > 92.5 | > 52.5 µM (inactive) | > 100 µM (inactive) | > 91.4 µM (inactive) | 46.6 µM (inactive) | > 100 µM (inactive) | > 100 µM (inactive) | 92.7 µM (inactive) | > 59 µM (inactive) | > 100 µM (inactive) | > 82.4 µM (inactive)
O=C(c1nc2ccccc2nc1O)C(O)c1ccccc1 (stereo unspecified) | > 100 µM (inactive) |  | > 100 µM (inactive) | 39.5 µM (inactive) | 86.9 µM (inactive) | 96.2 | > 100 µM (inactive) | 72.4 µM (inactive) | > 100 µM (inactive) | 44.6 µM (inactive) | 29.8 µM (inactive) | 86.1 µM (inactive) | 39.5 µM (inactive) | 61.7 µM (inactive) | > 100 µM (inactive) | > 100 µM (inactive)
CCOC(=O)C1=C(O)C(=O)c2c(OC)ccc(OC)c2C1=O | > 100 µM (inactive) | > 100 µM (inactive) | > 100 µM (inactive) | > 100 µM (inactive) | > 100 µM (inactive) | > 100 | > 100 µM (inactive) | > 100 µM (inactive) | > 100 µM (inactive) | > 100 µM (inactive) | > 100 µM (inactive) | > 100 µM (inactive) | > 100 µM (inactive) | > 100 µM (inactive) | > 100 µM (inactive) | > 100 µM (inactive)
CN(CCO)c1nc(N)cc(=O)[nH]1 | > 100 µM (inactive) | > 100 µM (inactive) | > 100 µM (inactive) | > 100 µM (inactive) | > 100 µM (inactive) | > 100 | > 100 µM (inactive) | > 100 µM (inactive) | > 100 µM (inactive) | > 100 µM (inactive) | > 100 µM (inactive) | > 100 µM (inactive) |  | > 100 µM (inactive) | > 100 µM (inactive) | > 100 µM (inactive)
Oc1ccc(-c2c3ccccc3c(-c3ccc(O)cc3)c3ccccc23)cc1 | > 100 µM (inactive) | > 100 µM (inactive) | 87.5 µM (inactive) | 60.5 µM (inactive) | > 100 µM (inactive) | > 100 | > 100 µM (inactive) | 41 µM (inactive) | > 100 µM (inactive) | 89.9 µM (inactive) | > 100 µM (inactive) | 64.3 µM (inactive) | > 100 µM (inactive) | > 100 µM (inactive) | > 100 µM (inactive) | > 100 µM (inactive)
CC1=C(NC(=O)/C(=N/NC(=S)NN)C2C(=O)CC(C)(C)CC2=O)C(=O)c2ccccc2C1=O | 7.4 µM (inactive) | 17.9 µM (inactive) | 3.97 µM (inactive) | 3.34 µM (inactive) | 8.49 µM (inactive) | 6 | 16 µM (inactive) | 2.49 µM (inactive) | 4.48 µM (inactive) | 13.3 µM (inactive) | 12.9 µM (inactive) | 3.61 µM (inactive) | 20.9 µM (inactive) | 3.41 µM (inactive) | 12.5 µM (inactive) | 19.8 µM (inactive)
O=C(c1ccccc1)c1ccc(OCCOc2ccc(Nc3ccccc3)cc2)cc1 | 42.3 µM (inactive) | 35.2 µM (inactive) | 69.2 µM (inactive) | > 100 µM (inactive) | > 100 µM (inactive) | 74.6 | 19.2 µM (inactive) | 63.4 µM (inactive) | 50.9 µM (inactive) | 24.3 µM (inactive) | 73.3 µM (inactive) | > 100 µM (inactive) | 27.4 µM (inactive) |  | > 100 µM (inactive) | 22.9 µM (inactive)
CC(=O)CC(N)=O | > 100 µM (inactive) | > 100 µM (inactive) | > 100 µM (inactive) |  | > 100 µM (inactive) | > 100 | > 100 µM (inactive) | > 100 µM (inactive) | > 100 µM (inactive) | > 100 µM (inactive) | > 100 µM (inactive) | > 100 µM (inactive) | > 100 µM (inactive) | > 100 µM (inactive) | > 100 µM (inactive) | > 100 µM (inactive)
NC(=O)CCC(NC(=O)Cc1ccccc1)C(=O)O (stereo unspecified) | > 2470 µM (inactive) | 531 µM (inactive) | 1090 µM (inactive) |  | > 2470 µM (inactive) | > 2470 | 1530 µM (inactive) | > 2470 µM (inactive) | > 2470 µM (inactive) |  | 1160 µM (inactive) | > 2470 µM (inactive) | > 2470 µM (inactive) | > 2470 µM (inactive) | > 2470 µM (inactive) | > 2470 µM (inactive)
C#CCSc1nc(N)c2ncn(C3OC(CO)C(O)C3O)c2n1 (stereo unspecified) | > 100 µM (inactive) | > 100 µM (inactive) | > 100 µM (inactive) | > 100 µM (inactive) | > 100 µM (inactive) | > 100 | > 100 µM (inactive) |  | > 100 µM (inactive) | > 100 µM (inactive) | > 100 µM (inactive) | > 100 µM (inactive) | > 100 µM (inactive) | > 100 µM (inactive) | > 100 µM (inactive) | 
O=C(CSc1nnc(Cc2ccccc2)o1)Nc1ccccc1 | > 100 µM (inactive) | > 100 µM (inactive) | > 100 µM (inactive) | > 100 µM (inactive) |  | > 100 | > 100 µM (inactive) | > 100 µM (inactive) | > 100 µM (inactive) | > 100 µM (inactive) | > 100 µM (inactive) |  | > 100 µM (inactive) | > 100 µM (inactive) | > 100 µM (inactive) | > 100 µM (inactive)
O=C1Cc2ccccc2CCc2ccccc21 | > 100 µM (inactive) | > 100 µM (inactive) | > 100 µM (inactive) | > 100 µM (inactive) | > 100 µM (inactive) | > 100 | 44.7 µM (inactive) | > 100 µM (inactive) | > 100 µM (inactive) | > 100 µM (inactive) | > 100 µM (inactive) | > 100 µM (inactive) | > 100 µM (inactive) | > 100 µM (inactive) | > 100 µM (inactive) | > 100 µM (inactive)
COC1C2c3ccccc3C(C#N)(Cc3ccc4c(c32)OCO4)N1C(=O)c1ccccc1 (stereo unspecified) | > 100 µM (inactive) | 16.3 µM (inactive) | 37.6 µM (inactive) | > 100 µM (inactive) | 32.8 µM (inactive) | 17.1 | 37.8 µM (inactive) | 3.37 µM (inactive) | 60.3 µM (inactive) | 41.4 µM (inactive) | 90.8 µM (inactive) | 14.3 µM (inactive) |  | 8.57 µM (inactive) | 16.7 µM (inactive) | 35.3 µM (inactive)
